Several values for one entry are separate records, joined by “and”; a condition that tells them apart may be missing. Equal entries are not always repeated. Each block holds one compound with its values, some of them ahead of it.
Columns and labels:
[1] = Inhibition of recombinant Plasmodium falciparum A-M1 using Leu-pNA as substrate by microplate reader analysis
[2] = Inhibition of Plasmodium falciparum alanyl aminopeptidase assessed as inhibition constant using H-Leu-NHMec as substrate by spectrofluorimeter based analysis
Plasmodium falciparum [3] = assay: Antimalarial activity against erythrocytic stage Plasmodium falciparum in human RBC assessed as inhibition of parasite growth incubated for 48 hrs by [3H]hypoxanthine incorporation assay; format: functional, organism-based, Red blood cell; details: Erythrocyte
Plasmodium falciparum [4] = assay: Antimalarial activity against erythrocytic stage Plasmodium falciparum in human RBC assessed as inhibition of parasite growth at 10 uM incubated for 48 hrs by [3H]hypoxanthine incorporation assay relative to control; format: functional, Red blood cell; parameters: scale not given: the % may be the effect or the level left
Plasmodium falciparum [5] = assay: Antimalarial activity against Plasmodium falciparum D10 incubated for 48 hrs by [3H]hypoxanthine incorporation assay; format: functional, organism-based
[6] = Inhibition of recombinant Plasmodium falciparum A-M17 assessed as inhibition constant using H-Leu-NHMec as substrate
[7] = Inhibition of Plasmodium falciparum M18 aspartyl aminopeptidase assessed as inhibition constant
Plasmodium falciparum [8] = assay: Antimalarial activity against Plasmodium falciparum 3D7 CQ-sensitive incubated for 48 hrs by [3H]hypoxanthine incorporation assay based MicroBeta plate reader
Plasmodium yoelii = assay: In vivo antiplasmodial activity against Plasmodium yoelii 17X infected in C57BL6 mouse assessed as mean survival time at 20 mg/kg, ip administered twice daily for 4 days after 2 hrs infection Giemsa staining based microscopic analysis relative to control; format: functional; details: time 4 day
Plasmodium berghei = assay: In vivo antiplasmodial activity against Plasmodium berghei K173 infected in C57BL6 mouse assessed as mean survival time at 20 mg/kg, ip administered twice daily for 4 days after 2 hrs infection Giemsa staining based microscopic analysis relative to control; format: functional; details: time 4 day
Plasmodium falciparum [9] = assay: Antimalarial activity against multidrug resistant Plasmodium falciparum Dd2 incubated for 48 hrs by [3H]hypoxanthine incorporation assay based MicroBeta plate reader
[10] = Inhibition of recombinant Plasmodium falciparum A-M1 assessed as inhibition constant using para-nitroanilide as substrate at 10 nM by spectrophotometer based method
[11] = Half life in CD-1 mouse at 3 mg/kg, iv measured after 8 hrs hrs by UHPLC analysis; format: ADME, organism-based; details: in vivo
Plasmodium falciparum [12] = assay: Antimalarial activity against Plasmodium falciparum 3D7 CQ-sensitive assessed as inhibition of growth by liquid scintillation counting method; format: functional, organism-based
[13] = Clearance in CD-1 mouse at 3 mg/kg, iv measured after 8 hrs hrs by UHPLC analysis; format: ADME, organism-based; details: in vivo
Plasmodium chabaudi [14] = assay: In vivo antiplasmodial activity against Plasmodium chabaudi chabaudi 864VD infected in BALB/c mouse assessed as reducing parasitaemia at 12 to 24 mg/kg, ip administered for 3 days after infection and measured after 25 days Giemsa staining based microscopic analysis relative to control; format: functional; parameters: scale not given: the % may be the effect or the level left; details: dose 12-24 mg/kg, time 25 day
Plasmodium falciparum [15] = assay: Antimalarial activity against Plasmodium falciparum chloroquine-resistant FcB1 Columbia assessed as inhibition of growth by liquid scintillation counting method; format: functional, organism-based
[16] = Inhibition of recombinant Plasmodium falciparum A-M17 assessed as inhibition constant using leucine para-nitroanilide as substrate at 60 nM by spectrophotometer based method
Plasmodium falciparum [17] = assay: Antimalarial activity against Plasmodium falciparum 3D7 incubated for 48 hrs by [3H]hypoxanthine incorporation assay; format: functional, organism-based
Plasmodium falciparum [18] = assay: Antimalarial activity against multidrug resistant Plasmodium falciparum W2 assessed as reduction in proliferation incubated for 24 hrs; format: functional, organism-based; details: W2, 24 h
[19] = Binding affinity to Plasmodium falciparum recombinant MetAP2 by Dex-Fum-mediated mammalian three-hybrid assay
Plasmodium falciparum [20] = assay: Antimalarial activity against Plasmodium falciparum NF54 wild-type assessed as reduction in proliferation incubated for 24 hrs by [3H]hypoxanthine incorporation assay; format: functional, organism-based
Plasmodium chabaudi [21] = assay: In vivo antiplasmodial activity against Plasmodium chabaudi chabaudi infected in C57/BL6J mouse assessed as reducing parasitaemia at 100 mg/kg, po administered for 4 days relative to control; format: functional; parameters: scale not given: the % may be the effect or the level left; details: time 4 day
Plasmodium chabaudi [22] = assay: In vivo antiplasmodial activity against Plasmodium chabaudi chabaudi infected in C57/BL6J mouse assessed as reducing parasitaemia at 25 mg/kg, po administered for 4 days relative to control; format: functional; parameters: scale not given: the % may be the effect or the level left; details: time 4 day
Plasmodium falciparum [23] = assay: Antimalarial activity against Plasmodium falciparum K1 incubated for 48 hrs by [3H]hypoxanthine incorporation assay; format: functional, organism-based
Plasmodium chabaudi [24] = assay: In vivo antiplasmodial activity against Plasmodium chabaudi chabaudi infected in C57/BL6J mouse assessed as reducing parasitaemia at 50 to 100 mg/kg, po administered for 4 days relative to control; format: functional; parameters: scale not given: the % may be the effect or the level left; details: dose 50-100 mg/kg, time 4 day
Plasmodium chabaudi [25] = assay: In vivo antiplasmodial activity against Plasmodium chabaudi chabaudi infected in C57/BL6J mouse assessed as reducing parasitaemia at 50 mg/kg, po administered for 4 days relative to control; format: functional; parameters: scale not given: the % may be the effect or the level left; details: time 4 day

IC50 (Plasmodium falciparum [5]): 20.5 µM
Compound: COC(=O)[C@H](CC(C)C)NC(=O)[C@@H](O)[C@H](N)Cc1ccccc1 [BESTATIN METHYL ESTER]
Ki [6]: 0.138 µM

IC50 [1]: 2500 nM
Compound: CC(C)CN(CCCN1CCN(CCCNc2ccnc3cc(Cl)ccc23)CC1)C(=O)C(N)C(=O)NO (stereo unspecified)

IC50 (Plasmodium falciparum [17]): 2000 nM
Compound: CO[C@H](C(=O)NO)[C@@H](CC(C)C)C(=O)N[C@H](C(=O)O)c1ccccc1
Ki [6]: 25 µM and 25.7 µM

IC50 [1]: 854 nM
Compound: CC(C)CN(CCCN1CCN(CCCNc2ccnc3cc(Cl)ccc23)CC1)C(=O)CC(=O)NO

IC50 (Plasmodium falciparum [5]): 14.9 µM | IC50 (Plasmodium falciparum [17]): 5000 nM
Compound: CC(C)C[C@H](NC(=O)[C@@H](O)[C@H](N)Cc1ccccc1)C(=O)O [UBENIMEX]
Activity (Plasmodium chabaudi [21]): 34%

IC50 (Plasmodium falciparum [23]): 376 nM | IC50 (Plasmodium falciparum [17]): 370 nM
Compound: CO[C@H](C(=O)NO)[C@@H](CC(C)C)C(=O)N[C@H](C(=O)OC1CCCC1)c1ccccc1
Activity (Plasmodium chabaudi [22]): 43% | Activity (Plasmodium chabaudi [24]): 66% | Ki [6]: 75 µM and 76 µM | Activity (Plasmodium chabaudi [25]): 52%

IC50 (Plasmodium falciparum [5]): 8 µM
Compound: CC(C)C[C@H](NC(=O)[C@@H](O)[C@H](N)Cc1ccc([N+](=O)[O-])cc1)C(=O)O
Ki [6]: 0.0027 µM

The remaining lines, values behind:

Compound: NCCC(=O)N(CCCN1CCN(CCCNc2ccnc3cc(Cl)ccc23)CC1)CC1CC1
IC50 [1]: 21000 nM

Compound: NC(CCc1ccccc1)P(=O)(O)CC(Cc1ccc(O)cc1)C(=O)O (stereo unspecified)
Ki [2]: 232 nM

Compound: CN1CCc2cccc3c2[C@@H]1Cc1ccc(O)c(O)c1-3 [(S)APOMORPHINE]
IC50 (Plasmodium falciparum [3]): 4000 nM | Activity (Plasmodium falciparum [4]): 87%

Compound: N[C@@H](CCC(=O)O)P(=O)(O)O
Ki [7]: 340 nM

Compound: Cc1nc(-c2ccccn2)nc(NCCc2ccccc2)c1Cl
IC50 (Plasmodium falciparum [8]): 1590 nM | Activity (Plasmodium yoelii): 80% | Activity (Plasmodium berghei): 60% | IC50 (Plasmodium falciparum [9]): 900 nM

Compound: NC1CCc2cccc(-c3ccccc3)c2CC1=O (stereo unspecified)
Ki [10]: 50 nM | half-life [11]: 132 min | IC50 (Plasmodium falciparum [12]): 11.2 µM | clearance [13]: 43 mL/min/kg | Activity (Plasmodium chabaudi [14]): 40% | IC50 (Plasmodium falciparum [15]): 6.5 µM | Ki [16]: > 100 µM

Compound: CO[C@]12C(=O)CC[C@@]1(CO)[C@H]2[C@@]1(C)O[C@@H]1CC=C(C)C
IC50 (Plasmodium falciparum [18]): 270 nM | IC50 [19]: 116 µM | IC50 (Plasmodium falciparum [20]): 160 nM

Compound: CO[C@H]1[C@H](C2(C)O[C@@H]2CC=C(C)C)[C@]2(CC[C@H]1OC(=O)NC(=O)CCl)CO2 (single isomer, unassigned)
IC50 (Plasmodium falciparum [18]): 3 nM | IC50 [19]: 2 µM | IC50 (Plasmodium falciparum [20]): 2 nM

Compound: Oc1ccc(CCNc2c3ccccc3nc3ccccc23)cc1O
IC50 (Plasmodium falciparum [3]): 1300 nM | Activity (Plasmodium falciparum [4]): 96%

From ChEMBL document CHEMBL5096157, “Metalloaminopeptidases of the Protozoan Parasite Plasmodium falciparum as Targets for the Discovery of Novel Antimalarial Drugs” (J Med Chem, 2021)
